Marks after values point to notes of the source that are not given here.
Experiments:
[1] = tested on: patients with mild-to-moderate hypertension; experiment: Phase II dose-ranging study of eplerenone in mild-to-moderate hypertension; format: in vivo, human; details: 50 mg BID
Description: The adjusted mean changes (in mmHg) in diastolic blood pressure (DBP) and systolic blood pressure (SBP) from baseline to final visit are shown in Table 1A.

[2] = tested on: patients with severe heart failure; experiment: Clinical study in patients with severe heart failure: HRQOL by SF-36; format: in vivo, human; details: for Change from baseline in SF-36 Bodily Pain / Change from baseline in SF-36 General Health / Change from baseline in SF-36 Mental Composite Summary (MCS) / Change from baseline in SF-36 Mental Health / Change from baseline in SF-36 Physical Composite Summary (PCS) / Change from baseline in SF-36 Physical Functioning / Change from baseline in SF-36 Role Limitations - Emotional / Change from baseline in SF-36 Role Limitations - Physical / Change from baseline in SF-36 Social Functioning / Change from baseline in SF-36 Vitality: 25 mg daily, mean ± SD; for Effect size estimate for change in SF-36 Bodily Pain / Effect size estimate for change in SF-36 General Health / Effect size estimate for change in SF-36 Mental Composite Summary (MCS) / Effect size estimate for change in SF-36 Mental Health / Effect size estimate for change in SF-36 Physical Composite Summary (PCS) / Effect size estimate for change in SF-36 Physical Functioning / Effect size estimate for change in SF-36 Role Limitations - Emotional / Effect size estimate for change in SF-36 Role Limitations - Physical / Effect size estimate for change in SF-36 Social Functioning / Effect size estimate for change in SF-36 Vitality: [mean (spironolactone) − mean (placebo)]/(SD placebo at baseline)
Description: Patients: One thousand six hundred and sixty-three (1,663) patients with severe heart failure were enrolled in the study. […] Treatment with digitalis and vasodilators was allowed, but potassium-sparing diuretics were not permitted. Oral potassium supplements were not recommended unless hypokalemia (serum potassium ≦3.5 mmol per liter) developed. A low salt diet (100-200 mEg/day, sodium) was recommended to all patients. Patients were excluded from the trial if they had clinically significant operable valvular disease (other than mitral or tricuspid regurgitation), congenital heart disease, unstable angina, primary hepatic failure, active malignancy, a heart transplant or were a candidate for heart transplantation, or any life threatening diseae (other than heart failure). Other criteria for exclusion were a serum creatinine concentration >2.5 mg per deciliter (>220 μmol per liter) or a serum potassium concentration >5.0 mmol per liter. The protocol was approved by the Institutional Review Boards or Ethics Committees of all participating institutions. Written informed consent was obtained from all patients.
Study Group: Subjects were randomly assigned to receive either spironolactone 25 mg daily or placebo. HRQOL was assessed in a subsample of 90 subjects in 2 participating countries using the Medical Outcomes Trust Short-Form 36-item Health Survey (SF-36). Assessments were scheduled at baseline, 1, 2, 3, and 6 months after initiation of therapy.
HRQOL Evaluation: HRQOL was assessed using the Short-Form 36-item Health Survey (SF-36). (Ware J E, Snow K K, Kosinski M, Gandek B. SF-36 Health Survey: Manual and Interpretation Guide. Boston, Mass.: The Health Institute, 1993). Assessments were scheduled at baseline, 1, 2, 3, 6 and 12 months after initiation of therapy. The analysis presented herein is limited to 6-month follow-up as less than 50% of subjects had 12-month follow-up data.
Statistical Analyses: Change from baseline was assessed for the 8 dimension scores of the SF-36, as well as the Physical (PCS) and Mental Composite Summary (MCS) scores. (Ware J E, Kosinski M, Keller S D. SF-36 Physical and Mental Health Summary Scales: A User's Manual. Boston, Mass.: The Health Institute, 1994). The PCS and MCS are generated to represent weighted summaries scores of the four physical functioning scales and four mental functioning scales of the SF-36. The summary scores are generally regarded as having improved reliability and precision as they are based on an incrementally larger number of health states contained in the SF-36 items. (Ware J E, Kosinski M, Keller S D. SF-36 Physical and Mental Health Summary Scales: A User's Manual. Boston, Mass.: The Health Institute, 1994.) Changes from baseline scores were compared between groups using non-directional independent groups t-tests. An alpha level of 0.05 was considered to be statistically significant. As an indicator of the responsiveness of the SF-36 scales to changes in health-related quality of life in severe heart failure patients, effect size estimates were also calculated. Effect size estimates were calculated as [mean (spironolactone)−mean (placebo)]/(SD placebo at baseline). (Hays R D, Anderson R, Revicki D. Psychometric considerations in evaluating health-related quality of life. Quality of Life Research 1993;2:441-449; Samsa G, Edelman D, Rothman M L, et al. Determining clinically important differences in health status measures. A general approach with illustrations to the Health Utilities Index Mark II. PharmacoEconomics1999;15:141-155). All analyses were carried out using SAS System for Windows, Release 6.12. (SAS version 6.12, SAS Institute Inc., North Carolina, 1996).
Patient Characteristics: Baseline HRQOL was assessed in a subsample of 90 subjects in 2 participating countries (i.e., Brazil and Canada). Forty-six subjects were randomized to spironolactone; 44 were randomized to the placebo arm. Sixty subjects had complete data for the 6 months of follow-up.

women with PMS = details: cited from earlier work
rats = details: prior treatment; scopolamine cholinergic blockade; cited from earlier work
animal models = details: cited from earlier work
[3] = ambulatory blood pressure monitoring
[4] = 3 months, listed as spironolactone
[5] = 6 months, listed as spironolactone
[6] = added to conventional heart failure therapy, severe HF
[7] = 100 mg daily from day 14 of menstrual cycle, compared to placebo, p<0.001

Question: For CC(=O)SC1CC2=CC(=O)CCC2(C)C2CCC3(C)C(CCC34CCC(=O)O4)C12 (stereo not shown) [Spironolactone, 17-hydroxy-7″-mercapto-3-oxo-17″-pregn-4-ene-21-carboxylic acid γ-lactone acetate], which “adjusted mean change in ABPM DBP from baseline to final visit” value [1, 3] is on record?
Answer: −8.7 mmHg

Question: What about the “adjusted mean change in ABPM SBP from baseline to final visit” value [1, 3] of the same compound?
Answer: −15.8 mmHg

Question: And the “adjusted mean change in Cuff DBP from baseline to final visit” value ([1]; eight-week study)?
Answer: −9.5 mmHg

Question: And the “adjusted mean change in Cuff SBP from baseline to final visit” value ([1]; eight-week study)?
Answer: −16.7 mmHg

Question: What about the “Change from baseline in SF-36 Bodily Pain” value ([2]; 3 months) of the same compound?
Answer: 19.6 ± 30.0^a

Question: What about the “Change from baseline in SF-36 General Health” value ([2]; 3 months) of the same compound?
Answer: 9.7 ± 20.4^a

Question: And the “Change from baseline in SF-36 Mental Composite Summary (MCS)” value (from here on “Change from baseline … (MCS)”) ([2]; 3 months)?
Answer: 13.2 ± 11.8^a,b

Question: And the “Change from baseline in SF-36 Mental Health” value ([2]; 3 months)?
Answer: 19.9 ± 21.2^a,b

Question: And the “Change from baseline in SF-36 Physical Composite Summary (PCS)” value ([2]; 3 months)?
Answer: 3.0 ± 8.1^a

Question: What about the “Change from baseline in SF-36 Physical Functioning” value ([2]; 3 months) of the same compound?
Answer: 7.9 ± 19.4^a

Question: And the “Change from baseline in SF-36 Role Limitations - Emotional” value ([2]; 3 months)?
Answer: 37.8 ± 46.1^a

Question: What about the “Change from baseline in SF-36 Role Limitations - Physical” value ([2]; 3 months) of the same compound?
Answer: 23.3 ± 40.1^a

Question: What about the “Change from baseline in SF-36 Social Functioning” value ([2]; 3 months) of the same compound?
Answer: 24.6 ± 33.6^a

Question: And the “Change from baseline in SF-36 Vitality” value ([2]; 3 months)?
Answer: 16.7 ± 24.1^a

Question: And the “Change from baseline … (MCS)” value [2, 4]?
Answer: 13.2±11.8

Question: And the “Change from baseline in SF-36 Mental Health” value [2, 4]?
Answer: 19.9±21.2

Question: What about the “Effect size estimate for change in SF-36 Bodily Pain” value ([2]; 3 months) of the same compound?
Answer: 0.40

Question: What about the “Effect size estimate for change in SF-36 General Health” value ([2]; 3 months) of the same compound?
Answer: 0.03

Question: What about the “Effect size estimate for change in SF-36 Mental Composite Summary (MCS)” value ([2]; 3 months) of the same compound?
Answer: 0.86

Question: And the “Effect size estimate for change in SF-36 Mental Health” value ([2]; 3 months)?
Answer: 0.76

Question: And the “Effect size estimate for change in SF-36 Physical Composite Summary (PCS)” value ([2]; 3 months)?
Answer: −0.21

Question: What about the “Effect size estimate for change in SF-36 Physical Functioning” value ([2]; 3 months) of the same compound?
Answer: −0.23

Question: And the “Effect size estimate for change in SF-36 Role Limitations - Emotional” value ([2]; 3 months)?
Answer: 0.48

Question: What about the “Effect size estimate for change in SF-36 Role Limitations - Physical” value ([2]; 3 months) of the same compound?
Answer: 0.33

Question: What about the “Effect size estimate for change in SF-36 Social Functioning” value ([2]; 3 months) of the same compound?
Answer: 0.26

Question: What about the “Effect size estimate for change in SF-36 Vitality” value ([2]; 3 months) of the same compound?
Answer: −0.07

Question: And the “Change from baseline in SF-36 Bodily Pain” value ([2]; 6 months)?
Answer: 15.9 ± 30.5^a

Question: What about the “Change from baseline in SF-36 General Health” value ([2]; 6 months) of the same compound?
Answer: 12.0 ± 22.3^a

Question: And the “Change from baseline … (MCS)” value ([2]; 6 months)?
Answer: 10.3 ± 12.8^a

Question: What about the “Change from baseline in SF-36 Mental Health” value ([2]; 6 months) of the same compound?
Answer: 17.5 ± 22.9^a,b

Question: And the “Change from baseline in SF-36 Physical Composite Summary (PCS)” value ([2]; 6 months)?
Answer: 3.9 ± 9.1^a

Question: And the “Change from baseline in SF-36 Physical Functioning” value ([2]; 6 months)?
Answer: 11.4 ± 21.5^a

Question: What about the “Change from baseline in SF-36 Role Limitations - Emotional” value ([2]; 6 months) of the same compound?
Answer: 24.0 ± 39.9^a

Question: And the “Change from baseline in SF-36 Role Limitations - Physical” value ([2]; 6 months)?
Answer: 14.8 ± 32.3^a

Question: What about the “Change from baseline in SF-36 Social Functioning” value ([2]; 6 months) of the same compound?
Answer: 23.1 ± 32.1^a

Question: And the “Change from baseline in SF-36 Vitality” value ([2]; 6 months)?
Answer: 19.0 ± 25.5^a

Question: And the “Change from baseline … (MCS)” value [2, 5]?
Answer: 10.3±12.8

Question: And the “Change from baseline in SF-36 Mental Health” value [2, 5]?
Answer: 17.5±22.9

Question: What about the “Effect size estimate for change in SF-36 Bodily Pain” value ([2]; 6 months) of the same compound?
Answer: 0.28

Question: And the “Effect size estimate for change in SF-36 General Health” value ([2]; 6 months)?
Answer: 0.08

Question: What about the “Effect size estimate for change in SF-36 Mental Composite Summary (MCS)” value ([2]; 6 months) of the same compound?
Answer: 0.64

Question: And the “Effect size estimate for change in SF-36 Mental Health” value ([2]; 6 months)?
Answer: 0.59

Question: And the “Effect size estimate for change in SF-36 Physical Composite Summary (PCS)” value ([2]; 6 months)?
Answer: −0.07

Question: What about the “Effect size estimate for change in SF-36 Physical Functioning” value ([2]; 6 months) of the same compound?
Answer: −0.11

Question: What about the “Effect size estimate for change in SF-36 Role Limitations - Emotional” value ([2]; 6 months) of the same compound?
Answer: −0.42

Question: What about the “Effect size estimate for change in SF-36 Role Limitations - Physical” value ([2]; 6 months) of the same compound?
Answer: −0.18

Question: What about the “Effect size estimate for change in SF-36 Social Functioning” value ([2]; 6 months) of the same compound?
Answer: 0.20

Question: What about the “Effect size estimate for change in SF-36 Vitality” value ([2]; 6 months) of the same compound?
Answer: 0.13

Question: What about the “effect on physical health or functioning” value [2, 6] of the same compound?
Answer: no detrimental effect

Question: And the “impact on mental health status” value [2, 6]?
Answer: strong, positive impact

Question: And the “negative mood symptom scores” value (women with PMS; [7])?
Answer: significant decrease

Question: And the somatic symptom scores (women with PMS; [7])?
Answer: significant decrease

Question: And the “irritability, depression, feeling of swelling, breast tenderness and food craving” value (women with PMS; in comparison to placebo)?
Answer: significantly improved

Question: And the “enhanced reactivity to novelty” value (rats)?
Answer: ameliorated

Question: What about the myocardial fibrosis (animal models) of the same compound?
Answer: prevents

Source: patent publication US20060058274A1, “Use of an aldosterone receptor antagonist to improve cognitive function” (Pharmacia Corporation, priority 2000, published 2006)
